For three molecules, Kd results are on record in article PMC4774911, “Biochemical Screening of Five Protein Kinases from Plasmodium falciparum against 14,000 Cell-Active Compounds” (PLoS ONE, 2016).

“And” between values parts separate entries of the source, which are not always exact repeats. Equal values may be shown once.

Among the targets are PTK2B (Homo sapiens, UniProt Q14289); CAMKK2 (Homo sapiens, UniProt Q96RR4); CRKRS (Homo sapiens, UniProt Q9NYV4); SLK (Homo sapiens, UniProt Q9H2G2); PRKCD (Homo sapiens, UniProt Q05655).
Common to all, as to test: biochemical
Common to all, as to set-up: endogenous in cells; host or cells: K562 cell extract; species or system K562 (extract); replicate k of n = 2 (each experiment ID is one independent experiment; two experiment IDs per compound)
Common to all, as to settings: read-out: KDapp

For the next assay, the target named is T1, NEK1 (Homo sapiens, UniProt Q96PY6).
T1 sequence (Q96PY6 1-1258): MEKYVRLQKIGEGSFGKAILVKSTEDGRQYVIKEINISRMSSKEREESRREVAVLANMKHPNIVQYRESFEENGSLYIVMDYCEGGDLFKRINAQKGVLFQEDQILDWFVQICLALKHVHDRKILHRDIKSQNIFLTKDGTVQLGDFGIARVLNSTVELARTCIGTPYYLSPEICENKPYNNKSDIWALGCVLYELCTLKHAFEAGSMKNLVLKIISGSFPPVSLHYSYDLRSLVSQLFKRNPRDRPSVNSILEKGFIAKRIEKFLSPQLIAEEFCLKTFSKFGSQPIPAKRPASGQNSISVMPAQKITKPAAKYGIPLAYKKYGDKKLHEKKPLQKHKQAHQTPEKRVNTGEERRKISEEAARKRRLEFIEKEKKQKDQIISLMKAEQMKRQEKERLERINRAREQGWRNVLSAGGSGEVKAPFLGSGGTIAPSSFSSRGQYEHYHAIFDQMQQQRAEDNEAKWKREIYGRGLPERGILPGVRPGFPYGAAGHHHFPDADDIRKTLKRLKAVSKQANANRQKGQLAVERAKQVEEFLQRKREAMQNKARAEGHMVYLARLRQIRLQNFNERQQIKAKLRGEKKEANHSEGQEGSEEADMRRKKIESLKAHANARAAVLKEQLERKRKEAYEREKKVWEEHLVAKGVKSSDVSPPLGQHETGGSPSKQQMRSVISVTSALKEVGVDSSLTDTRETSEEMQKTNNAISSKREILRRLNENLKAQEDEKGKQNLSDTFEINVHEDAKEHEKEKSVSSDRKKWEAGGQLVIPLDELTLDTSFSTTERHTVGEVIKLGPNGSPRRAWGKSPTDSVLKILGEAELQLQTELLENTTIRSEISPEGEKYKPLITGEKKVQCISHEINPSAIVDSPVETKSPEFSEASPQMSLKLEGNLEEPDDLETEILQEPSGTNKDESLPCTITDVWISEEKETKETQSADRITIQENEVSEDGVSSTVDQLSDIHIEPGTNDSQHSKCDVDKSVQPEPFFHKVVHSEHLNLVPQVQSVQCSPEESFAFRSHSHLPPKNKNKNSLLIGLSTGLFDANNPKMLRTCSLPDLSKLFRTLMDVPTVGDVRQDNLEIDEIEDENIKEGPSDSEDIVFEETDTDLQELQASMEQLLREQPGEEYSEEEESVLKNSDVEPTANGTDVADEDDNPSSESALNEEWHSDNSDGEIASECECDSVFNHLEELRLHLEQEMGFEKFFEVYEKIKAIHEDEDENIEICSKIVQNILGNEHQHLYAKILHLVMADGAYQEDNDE

Another assay deals with T2, MYLK3 (Homo sapiens, UniProt Q32MK0).
T2 sequence (Q32MK0 1-819): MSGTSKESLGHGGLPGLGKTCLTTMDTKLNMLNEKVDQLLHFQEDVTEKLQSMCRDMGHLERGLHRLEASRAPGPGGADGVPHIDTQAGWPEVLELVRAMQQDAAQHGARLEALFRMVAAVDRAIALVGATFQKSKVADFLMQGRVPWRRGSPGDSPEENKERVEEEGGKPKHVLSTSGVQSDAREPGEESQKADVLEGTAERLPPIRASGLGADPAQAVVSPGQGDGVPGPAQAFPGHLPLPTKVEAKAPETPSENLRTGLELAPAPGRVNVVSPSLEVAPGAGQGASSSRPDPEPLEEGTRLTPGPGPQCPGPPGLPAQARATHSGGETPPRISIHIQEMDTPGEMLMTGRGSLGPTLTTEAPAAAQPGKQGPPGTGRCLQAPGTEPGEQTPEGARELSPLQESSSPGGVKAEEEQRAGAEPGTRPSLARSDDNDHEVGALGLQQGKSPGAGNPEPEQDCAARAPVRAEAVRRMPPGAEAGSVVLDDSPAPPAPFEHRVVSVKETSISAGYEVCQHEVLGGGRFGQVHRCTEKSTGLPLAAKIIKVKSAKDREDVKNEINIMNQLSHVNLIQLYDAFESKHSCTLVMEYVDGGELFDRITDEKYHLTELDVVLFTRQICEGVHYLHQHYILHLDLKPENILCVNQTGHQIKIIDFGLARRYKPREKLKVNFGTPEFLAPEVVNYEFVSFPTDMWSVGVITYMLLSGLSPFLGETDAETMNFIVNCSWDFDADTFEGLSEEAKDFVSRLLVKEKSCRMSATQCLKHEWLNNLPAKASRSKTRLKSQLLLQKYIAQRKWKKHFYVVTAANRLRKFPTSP

Chain of CAMKK2 (Q96RR4 whole entry): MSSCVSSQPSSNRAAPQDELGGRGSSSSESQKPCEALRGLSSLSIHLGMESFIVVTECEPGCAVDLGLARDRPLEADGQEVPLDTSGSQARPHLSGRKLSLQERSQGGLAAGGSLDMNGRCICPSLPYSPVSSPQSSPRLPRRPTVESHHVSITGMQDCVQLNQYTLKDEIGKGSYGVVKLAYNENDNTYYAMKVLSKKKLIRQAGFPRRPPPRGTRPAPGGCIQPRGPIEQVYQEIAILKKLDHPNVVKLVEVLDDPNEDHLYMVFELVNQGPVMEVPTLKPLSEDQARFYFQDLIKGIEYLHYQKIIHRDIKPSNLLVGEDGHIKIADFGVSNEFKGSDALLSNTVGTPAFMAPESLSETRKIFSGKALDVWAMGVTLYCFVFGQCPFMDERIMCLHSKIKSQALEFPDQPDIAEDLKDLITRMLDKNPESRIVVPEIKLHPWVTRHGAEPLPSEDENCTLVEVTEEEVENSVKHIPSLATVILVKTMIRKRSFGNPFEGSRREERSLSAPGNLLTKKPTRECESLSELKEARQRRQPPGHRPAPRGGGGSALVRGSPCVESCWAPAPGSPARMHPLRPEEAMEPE
Chain of SLK (Q9H2G2 whole entry): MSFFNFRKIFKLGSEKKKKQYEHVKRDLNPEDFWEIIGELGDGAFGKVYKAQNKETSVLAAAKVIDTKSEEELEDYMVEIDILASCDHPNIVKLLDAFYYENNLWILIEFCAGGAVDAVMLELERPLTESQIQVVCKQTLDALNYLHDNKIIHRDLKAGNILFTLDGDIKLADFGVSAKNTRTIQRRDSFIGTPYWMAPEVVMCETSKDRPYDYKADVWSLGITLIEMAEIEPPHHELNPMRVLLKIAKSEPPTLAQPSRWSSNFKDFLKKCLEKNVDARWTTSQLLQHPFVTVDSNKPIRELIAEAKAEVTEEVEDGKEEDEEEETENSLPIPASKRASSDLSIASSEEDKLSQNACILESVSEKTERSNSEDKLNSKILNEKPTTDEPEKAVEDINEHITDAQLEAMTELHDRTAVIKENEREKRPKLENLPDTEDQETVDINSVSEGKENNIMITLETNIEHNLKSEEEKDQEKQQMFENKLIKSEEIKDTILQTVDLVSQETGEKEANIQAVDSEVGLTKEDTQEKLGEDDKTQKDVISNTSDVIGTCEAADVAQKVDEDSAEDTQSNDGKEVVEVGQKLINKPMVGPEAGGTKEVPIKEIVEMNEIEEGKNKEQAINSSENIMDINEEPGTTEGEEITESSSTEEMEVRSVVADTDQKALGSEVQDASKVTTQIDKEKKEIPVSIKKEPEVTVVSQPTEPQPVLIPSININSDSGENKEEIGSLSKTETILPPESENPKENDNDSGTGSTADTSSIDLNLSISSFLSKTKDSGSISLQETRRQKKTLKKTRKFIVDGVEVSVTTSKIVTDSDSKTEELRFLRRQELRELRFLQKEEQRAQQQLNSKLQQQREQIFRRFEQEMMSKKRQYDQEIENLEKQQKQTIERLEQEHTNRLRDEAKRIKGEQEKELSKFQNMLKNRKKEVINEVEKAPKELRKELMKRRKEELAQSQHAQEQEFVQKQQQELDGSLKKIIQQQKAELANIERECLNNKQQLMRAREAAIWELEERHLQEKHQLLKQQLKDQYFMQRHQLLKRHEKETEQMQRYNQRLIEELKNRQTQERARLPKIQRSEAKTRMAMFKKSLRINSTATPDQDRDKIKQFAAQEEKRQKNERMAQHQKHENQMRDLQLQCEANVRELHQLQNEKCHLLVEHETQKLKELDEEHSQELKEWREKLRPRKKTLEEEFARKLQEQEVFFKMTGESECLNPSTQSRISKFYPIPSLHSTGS
Chain of PTK2B (Q14289 whole entry): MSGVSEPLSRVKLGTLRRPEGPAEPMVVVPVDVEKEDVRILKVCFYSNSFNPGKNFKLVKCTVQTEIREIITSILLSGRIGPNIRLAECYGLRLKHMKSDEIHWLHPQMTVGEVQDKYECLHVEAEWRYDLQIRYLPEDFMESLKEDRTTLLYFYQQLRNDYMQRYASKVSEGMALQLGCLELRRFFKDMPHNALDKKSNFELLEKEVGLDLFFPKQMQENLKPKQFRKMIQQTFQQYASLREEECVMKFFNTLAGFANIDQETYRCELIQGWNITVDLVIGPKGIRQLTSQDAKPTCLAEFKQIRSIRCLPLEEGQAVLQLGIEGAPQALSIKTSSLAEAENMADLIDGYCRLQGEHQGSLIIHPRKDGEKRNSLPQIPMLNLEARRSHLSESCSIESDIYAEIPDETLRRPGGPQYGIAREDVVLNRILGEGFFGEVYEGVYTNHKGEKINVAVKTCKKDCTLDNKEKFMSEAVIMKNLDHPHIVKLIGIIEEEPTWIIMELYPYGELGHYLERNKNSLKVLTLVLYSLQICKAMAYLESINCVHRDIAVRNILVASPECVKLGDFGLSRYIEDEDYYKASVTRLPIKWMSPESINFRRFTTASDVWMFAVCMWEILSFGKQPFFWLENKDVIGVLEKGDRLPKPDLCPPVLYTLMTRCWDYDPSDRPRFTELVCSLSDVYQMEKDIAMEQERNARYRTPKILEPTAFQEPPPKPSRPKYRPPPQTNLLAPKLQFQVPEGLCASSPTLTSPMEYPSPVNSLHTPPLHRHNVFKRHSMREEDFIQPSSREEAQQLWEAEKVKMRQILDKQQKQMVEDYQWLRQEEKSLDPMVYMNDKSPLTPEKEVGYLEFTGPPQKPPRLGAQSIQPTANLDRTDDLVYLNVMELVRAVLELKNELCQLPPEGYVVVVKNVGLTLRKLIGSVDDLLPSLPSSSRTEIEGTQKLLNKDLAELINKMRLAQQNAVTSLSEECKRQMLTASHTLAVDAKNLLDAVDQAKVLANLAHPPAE
Chain of PRKCD (Q05655 whole entry): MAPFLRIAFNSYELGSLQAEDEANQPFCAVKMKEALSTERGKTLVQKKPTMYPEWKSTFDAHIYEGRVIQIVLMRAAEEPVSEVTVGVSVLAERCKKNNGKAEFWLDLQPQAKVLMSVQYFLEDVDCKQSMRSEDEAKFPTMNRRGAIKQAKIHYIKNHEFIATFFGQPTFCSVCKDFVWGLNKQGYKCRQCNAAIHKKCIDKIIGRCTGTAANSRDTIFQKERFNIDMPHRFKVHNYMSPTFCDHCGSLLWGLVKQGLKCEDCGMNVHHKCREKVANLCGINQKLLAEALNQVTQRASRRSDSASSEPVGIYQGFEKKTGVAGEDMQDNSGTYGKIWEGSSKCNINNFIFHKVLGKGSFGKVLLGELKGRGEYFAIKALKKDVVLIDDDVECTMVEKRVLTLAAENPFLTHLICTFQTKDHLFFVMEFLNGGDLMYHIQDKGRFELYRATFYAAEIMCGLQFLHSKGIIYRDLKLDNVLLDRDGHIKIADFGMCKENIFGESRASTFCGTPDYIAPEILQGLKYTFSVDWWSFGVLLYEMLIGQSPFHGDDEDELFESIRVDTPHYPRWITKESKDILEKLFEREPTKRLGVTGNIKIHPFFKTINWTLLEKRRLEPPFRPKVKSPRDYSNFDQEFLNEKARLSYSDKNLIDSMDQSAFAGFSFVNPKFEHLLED
Chain of CRKRS (Q9NYV4 whole entry): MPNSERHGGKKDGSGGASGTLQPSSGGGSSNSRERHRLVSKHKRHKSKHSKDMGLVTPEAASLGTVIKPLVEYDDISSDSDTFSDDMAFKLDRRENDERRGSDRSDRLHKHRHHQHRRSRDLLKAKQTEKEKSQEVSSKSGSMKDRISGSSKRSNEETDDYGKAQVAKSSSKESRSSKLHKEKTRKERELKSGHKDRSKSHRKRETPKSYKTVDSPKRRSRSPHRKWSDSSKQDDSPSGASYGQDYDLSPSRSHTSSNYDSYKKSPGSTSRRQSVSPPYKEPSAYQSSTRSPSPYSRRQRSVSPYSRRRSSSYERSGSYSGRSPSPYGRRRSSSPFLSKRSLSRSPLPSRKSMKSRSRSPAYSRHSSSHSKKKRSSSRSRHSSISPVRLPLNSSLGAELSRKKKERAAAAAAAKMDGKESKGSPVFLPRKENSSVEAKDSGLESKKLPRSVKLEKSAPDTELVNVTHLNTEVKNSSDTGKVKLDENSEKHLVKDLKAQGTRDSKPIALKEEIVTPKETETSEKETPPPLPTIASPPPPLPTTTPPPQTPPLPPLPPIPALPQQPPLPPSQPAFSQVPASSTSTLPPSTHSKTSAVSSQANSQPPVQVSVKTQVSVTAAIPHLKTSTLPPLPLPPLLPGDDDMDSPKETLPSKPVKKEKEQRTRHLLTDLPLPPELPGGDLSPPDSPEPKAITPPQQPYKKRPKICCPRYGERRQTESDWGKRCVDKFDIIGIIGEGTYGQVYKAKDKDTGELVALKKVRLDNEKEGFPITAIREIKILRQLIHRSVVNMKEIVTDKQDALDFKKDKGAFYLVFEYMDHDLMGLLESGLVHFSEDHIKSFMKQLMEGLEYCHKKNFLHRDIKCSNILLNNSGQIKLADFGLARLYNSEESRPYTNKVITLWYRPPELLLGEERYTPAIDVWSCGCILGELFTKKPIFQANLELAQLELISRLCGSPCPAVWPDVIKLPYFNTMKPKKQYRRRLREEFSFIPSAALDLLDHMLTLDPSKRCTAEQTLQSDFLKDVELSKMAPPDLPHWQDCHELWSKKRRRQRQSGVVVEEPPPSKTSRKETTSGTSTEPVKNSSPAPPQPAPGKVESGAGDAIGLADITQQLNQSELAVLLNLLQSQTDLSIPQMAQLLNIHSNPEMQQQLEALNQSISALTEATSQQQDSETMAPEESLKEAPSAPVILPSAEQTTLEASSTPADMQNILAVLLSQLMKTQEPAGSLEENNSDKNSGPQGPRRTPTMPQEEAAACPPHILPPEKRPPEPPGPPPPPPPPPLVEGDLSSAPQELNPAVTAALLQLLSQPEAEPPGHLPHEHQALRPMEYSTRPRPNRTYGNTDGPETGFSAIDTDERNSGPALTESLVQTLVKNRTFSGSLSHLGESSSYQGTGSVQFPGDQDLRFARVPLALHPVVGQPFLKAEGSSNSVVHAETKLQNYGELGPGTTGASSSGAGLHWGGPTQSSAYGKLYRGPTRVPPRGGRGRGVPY

Regarding `CN1CCN(c2ccc(Nc3ncc(C#N)c(Nc4ccccc4C(N)=O)n3)cc2)CC1.Cl` [TCMDC-134116], the Kd on PTK2B is 28.1 nM and 35.3 nM; on NEK1, 404 nM and 333 nM; on CAMKK2, 131 nM and 139 nM; at CRKRS, 507 nM; at SLK, 28.5 nM and 33.8 nM; at PRKCD it was 685 nM. For the same molecule, the Kd at MYLK3 is 56 nM and 77.8 nM.
`Cl.NCC1(c2nc(-c3ccc(Cl)c(O)c3)c(-c3ccncc3)[nH]2)CCCCC1` [TCMDC-141154]: the Kd on PRKCD was determined as 806 nM.
Regarding `CN(C)CC(O)COc1ccc(Nc2ncc([N+](=O)[O-])c(Nc3ccccc3O)n2)cc1.O=C(O)C(F)(F)F` (centres unmarked) [TCMDC-141399], the Kd is 128 nM and 175 nM on PTK2B; 4540 nM at NEK1; 1940 nM and 2040 nM on CAMKK2; 1640 nM on CRKRS; 528 nM and 593 nM at SLK; 1760 nM and 1510 nM on MYLK3.
